The test system of one assay is pre-miR-21. The experiment in a line: In vitro C-Chem-CLIP. It counts as binding. As to conditions: 32P-labeled pre-miR-21; 8 at 5 μM; 7 at 1, 5, 20 or 100 μM. As for the experimental part: Direct target occupancy was further verified using C-Chem-CLIP. In this assay, the RNA-binding module was conjugated to a diazirine cross-linking module and an alkyne handle for purification, affording Chem-CLIP probe 8 (FIG. 8A).^18 Radioactively labeled pre-miR-21 was incubated with a constant concentration of 8 and increasing amounts of 7. After cross-linking by irradiation with UV light, the amount of pre-miR-21 pulled down by 8 was measured by its radioactive signal. If the two compounds (7 and 8) share the same binding site, the amount of pre-miR-21 in the pulled down fraction is depleted.
In Vitro C-Chem-CLIP. Growth medium (RPMI 1640 medium supplemented with 300 mg/L Lglutamine & 25 mM HEPES; Corning, catalog #10-041-CV)] was inactivated by heating to 95° C. for 10 min followed by slowly cooling to room temperature. […]
Copper-catalyzed click chemistry^10 was used to click the probes in each sample to biotinazide (1265-5, Click Chemistry Tools). […] Radioactive signal from both the bound RNA on the magnetic beads and the unbound RNA in the wash solutions were measured using a Beckman […] Coulter LS6500 Liquid Scintillation Counter. The percentage pulldown by Chem-CLIP probe was calculated according to equation 2: […]

Another assay relates to miR-21. The experiment in a line: Global miRNA profiling in MDA-MB-231 cells. The settings on record: 377 miRNAs. It counts as cell-based. The method, then: Two CRISPR-modified MDA-MB-231 cell lines with either a scrambled control guide RNA (“Control sgRNA”; RNase L is expressed) or with an RNase L-targeting guide RNA (“RNase L-Targeting sgRNA”; RNase L protein abundance is knocked down) were used to complete these studies.
For global miRNA profiling experiments, RT was completed using 2 μg total RNA and a Mir-X miRNA First Strand Synthesis Kit (Takara) in a total volume of 20 μL. The RT reaction was then plated into the wells of a 384-well qPCR plate containing pre-diluted forward and reverse primers for the miRNA of interest. RT-qPCR was performed on a QuantStudio5™ Real-Time PCR Instrument (Applied Biosystems) using Power SYBR Green Master Mix (Applied Biosystems). Data were analyzed using the ΔΔCt method,^11 followed by calculation of log 2 fold changes and −log 10 p-values. The software Perseus was used to calculate the false discovery rate (FDR) of 1% with a group variance of S0(0.1).

Assay [1] concerns phosphorylation of extracellular signal-regulated kinase (ERK). The experiment in a line: Western blot of pERK versus ERK (RTK signaling). It counts as cell-based. As to conditions: CRISPR-Control sgRNA MDA-MB-231 cells. The method, then:
Quantification of Protein Levels by Western Blotting. MDA-MB-231 cells were treated as described in “Cell Culture.” After treatment, the medium was removed, and the cells were washed with 1× Dulbecco's phosphate-buffered saline (DPBS). Total protein was extracted using Mammalian Protein Extraction Reagent (M-PER, Thermo Scientific) according to the manufacturer's protocol. Protein concentration was measured using a Pierce Micro BCA Protein Assay kit (Fisher Scientific). Approximately 20 μg total protein was loaded onto a Tris-glycine gel with a 5% polyacrylamide stacking layer and a 10% polyacrylamide resolving layer. The gel was run at 140 V for ˜1.5 h in 1× Running Buffer (25 mM Tris base, pH 8.3, 190 mM glycine, and 0.1% (w/v) SDS). After electrophoresis, the protein was transferred to a PVDF membrane using 1× Transfer Buffer (25 mM Tris base, pH 8.3, 190 mM glycine, and 20% (v/v) methanol). The membrane was then washed with 1×TBST (Tris-buffered saline with 0.1% (v/v) Tween 20) and blocked in a solution of 5% (w/v) milk in 1×TBST for 30 min with shaking at room temperature. The membrane was then incubated overnight at 4° C. in a solution of primary antibody diluted in 1×TBST containing 5% (w/v) milk. […]

For the compound `CNC(=O)[C@H](c1ccccc1)N(C)Cc1ccc(-c2cccc(-c3sccc3NC(=O)CCOCCOCCOCCC(=O)NCCN3CCN(c4ccc5nc(-c6c(N)c7c(F)cccc7[nH]c6=O)[nH]c5c4)CC3)c2)cc1` [RiboTAC 7, (S)—N-(2-(4-(2-(4-amino-5-fluoro-2-oxo-1,2-dihydroquinolin-3-yl)-1H-benzo[d]imidazol-6-yl)piperazin-1-yl)ethyl)-3-(2-(2-(3-((2-(4′-((methyl(2-(methylamino)-2-oxo-1-phenylethyl)amino)methyl)-[1,1′-biphenyl]-3-yl)thiophen-3-yl)amino)-3-oxopropoxy)ethoxy)ethoxy)propanamide], the “amount of pre-miR-21 cross-linked to Chem-CLIP probe 8 in competition” value in the assay on pre-miR-21 is listed as “dose-dependently reduced the amount of pre-miR-21 cross-linked to 8”. In the assay with miR-21, the miRNA profiling selectivity entry is recorded as “selectively down-regulated miR-21 across the transcriptome”. Also, the “effect on the levels of ERK or pERK” value in assay [1] is on record as “no effect”.

These data come from patent US20260167614A1, “IDENTIFICATION OF SMALL MOLECULES THAT RECRUIT AND ACTIVATE RNASE L” (UNIVERSITY OF FLORIDA RESEARCH FOUNDATION, INCORPORATED, priority 2022, published 2026).
